The values that follow are results of earlier work, collected in paper PMC2981068 (Journal of medicinal chemistry, 2010).

In data set [1] the test system is E. faecalis (VanB, strain ATCC 51299), vancomycin-resistant and teicoplanin-sensitive. To be noted: footnotes d, ref [7]–[8], [4].
Data set [2] has as its system E. faecalis (VanA, strain BM4166), vancomycin- and teicoplanin-resistant. The note with it: footnotes d, ref [7]–[8], [4].
Data set [3] deals with Enterocococci bacterial strains (VanA and VanB). The note with it: resistant vs sensitive bacteria; ref [1d].
The test system of data set [4] is Staphylococcus aureus (strain ATCC 25923), vancomycin-sensitive. To be noted: reference not given, ref [1a],[6] as in b5.
For data set [5] the following is noted: computationally determined, relative to 2 with ligand 3; ref [11].

Marks after values point to notes of the source that are not given here.

For the substance Vancomycin [Compound 1], the “MIC E. faecalis (VanB) (value in parentheses)” value in data set [1] is 125 mg/L. For the same substance, the “MIC E. faecalis (VanA) (value in parentheses)” value in data set [2] is on record as 2000 (2000) ^e μg/mL. For the same substance, the “drop in antimicrobial activity on D-Ala to D-Lac change” value in data set [3] is reported as 1000 fold.

Take chlorobiphenyl vancomycin [Compound 8]: the “MIC for sensitive strain (comparator in text)” value in data set [4] was 0.03 mg/L.

vancomycin aglycon [Compound 2]: the “MIC E. faecalis (VanB) (value in parentheses)” value in data set [1] is 80 mg/L. In addition, the “MIC E. faecalis (VanA) (value in parentheses)” value in data set [2] is on record as 640 (640) ^d, ^e μg/mL. For the same substance, the “ΔΔGb cal, ligand 3” value in data set [5] is on record as 0.0 (0.0) ^d kcal/mol.
